# According to US7527812B2, “Herbal composition for treating cancer” (Sheng Foong Pharmaceutical Co., Ltd., priority 2005, dated 2009):
# Tests used:
# Assay type in all cases: cell-based
# [1] = system: MKN45 stomach carcinoma cells; test: in vitro cytotoxicity assay (MTS), MKN45; conditions: Homo sapiens, MKN-45, MKN45, 72 hours exposure, read-out: IC50 (concentration that inhibits 50% of cell growth)
# From the text: (§1) To examine the effects of the present composition SF-01 on inhibition of cancer/tumor cells, various human cell lines were used, including one normal cell line and eight cancer/tumor cell lines: • 1. RPTEC (Cambrex): Normal renal proxima tubule epithelial cell, Human • 2. A-498 (ATCC HTB-44): Kidney carcinoma, Human • 3. HCT 116 (ATCC CCL-247): Colorectal carcinoma, Human • 4. Hep 3B (ATCC HB-8064): Hepatocellular carcinoma, Human • 5. LNCap clone FGC (ATCC CRL-1740): Prostate carcinoma, Human • 6. MCF-7 (ATCC HTB-22): Mammary gland adenocarcinoma, Human • 7. MKN45 (FDSC JCRB0245): Stomach carcinoma, Human • 8. NCI-H226 (ATCC CRL-5826): Lung carcinoma, Human • 9. NPC-TW01 (School of Medicine, NTU): Nasal-pharyngeal carcinoma, Human […]
# (§2) To evaluate the antitumoral activity of SF-01 towards various human cancer cell lines and measure the potential cytotoxicity of SF-01 towards the primary human renal cell lines (RPTEC), an in vitro cytotoxicity assay was carried out. […] To quantify the metabolically viable cells, the conversion of MTS to formazan was measured by absorbance at 490 nm in a 96-well microtiter plate reader. […] The percentage of cytostasis was calculated by the formula: Cytostasis (%)=[1−(B/A)]×100, where A is the absorbance of the untreated control and B is the absorbance of the treated cell. […]
# [2] = system: Hep 3B hepatocellular carcinoma cells; test: in vitro cytotoxicity assay (MTS), Hep 3B; conditions: Homo sapiens, Hep3B, 72 hours exposure, read-out: IC50 (concentration that inhibits 50% of cell growth)
# From the text: as §1, §2
# [3] = system: A-498 kidney carcinoma cells; test: in vitro cytotoxicity assay (MTS), A498; conditions: Homo sapiens, A498, 72 hours exposure, read-out: IC50 (concentration that inhibits 50% of cell growth)
# From the text: as §1, §2
# [4] = system: NCI-H226 lung carcinoma cells; test: in vitro cytotoxicity assay (MTS), NCI-H226; conditions: Homo sapiens, NCI-H226, 72 hours exposure, read-out: IC50 (concentration that inhibits 50% of cell growth)
# From the text: as §1, §2
# [5] = system: MCF-7 mammary gland adenocarcinoma cells; test: in vitro cytotoxicity assay (MTS), MCF-7; conditions: Homo sapiens, MCF7, MCF-7, 72 hours exposure, read-out: IC50 (concentration that inhibits 50% of cell growth)
# From the text: as §1, §2
# [6] = system: LNCaP clone FGC prostate carcinoma cells; test: in vitro cytotoxicity assay (MTS), LNCaP clone FGC; conditions: Homo sapiens, 72 hours exposure, read-out: IC50 (concentration that inhibits 50% of cell growth)
# From the text: as §1, §2
# [7] = system: HCT 116 colorectal carcinoma cells; test: in vitro cytotoxicity assay (MTS), HCT 116; conditions: Homo sapiens, HCT 116, 72 hours exposure, read-out: IC50 (concentration that inhibits 50% of cell growth)
# From the text: as §1, §2
# [8] = system: NPC-TW01 nasal-pharyngeal carcinoma cells; test: in vitro cytotoxicity assay (MTS), NPC-TW01; conditions: Homo sapiens, NPC-TW01, 72 hours exposure, read-out: IC50 (concentration that inhibits 50% of cell growth)
# From the text: as §1, §2
# [9] = system: various human tumor cell lines; test: in vitro cytotoxicity assay (MTS), span over the tumor cell lines; conditions: span over the eight tumor cell lines, 72 hours exposure
# From the text: as §1, §2
# [10] = system: RPTEC normal renal proximal tubule epithelial cells; test: in vitro cytotoxicity assay (MTS), normal cell RPTEC; conditions: Homo sapiens, 72 hours exposure, read-out: IC50 (concentration that inhibits 50% of cell growth)
# From the text: as §1, §2
SMILES,IC50 [1] [nM],IC50 [2] [nM],IC50 [3] [nM],IC50 [4] [nM],IC50 [5] [nM],IC50 [6] [nM],IC50 [7] [nM],IC50 [8] [nM],IC50 to various human tumor cell lines (span over the lines) [9] [nM],IC50 [10] [nM]
CC(=O)O[C@H]1C(=O)[C@@]2(C)[C@H]([C@H](OC(=O)c3ccccc3)[C@]3(O)C[C@H](OC(=O)[C@H](O)[C@@H](NC(=O)c4ccccc4)c4ccccc4)C(C)=C1C3(C)C)[C@]1(OC(C)=O)CO[C@@H]1C[C@@H]2O [Taxol],0.0256,0.0256,11.1,< 0.64,< 0.0256,< 0.0256,< 0.0256,< 0.0256,11 to 0.003,406
COc1cccc2c1C(=O)c1c(O)c3c(c(O)c1C2=O)C[C@@](O)(C(=O)CO)C[C@@H]3O[C@H]1C[C@H](N)[C@H](O)[C@H](C)O1 [Doxorubicin],58,116,782,123,70,14,33,11,800 to 11,3180
